Experimental data: patent US20260355129A1, “5-HT2C AGONISTS FOR TREATING PRADER-WILLI SYNDROME (PWS), METABOLIC SYNDROMES, AND OTHER DISEASES AND DISORDERS” (Park City Bio, LLC, priority 2025, published 2026)

How the values were obtained:
Format in all cases: cell-based
Settings in all cases: HEK-293T, HEK293T, normalized to % 5-HT stimulation, class symbols (Table 5)
[1] = target: T1, 5-HT2B receptor (Homo sapiens, UniProt P41595); experiment: 5-HT2 receptor-mediated Gq activation, Gq/y1 dissociation by BRET, 5-HT2B
T1 construct: expressed in transfected cells; host or cells: HEK293T
T1 sequence (P41595 whole entry): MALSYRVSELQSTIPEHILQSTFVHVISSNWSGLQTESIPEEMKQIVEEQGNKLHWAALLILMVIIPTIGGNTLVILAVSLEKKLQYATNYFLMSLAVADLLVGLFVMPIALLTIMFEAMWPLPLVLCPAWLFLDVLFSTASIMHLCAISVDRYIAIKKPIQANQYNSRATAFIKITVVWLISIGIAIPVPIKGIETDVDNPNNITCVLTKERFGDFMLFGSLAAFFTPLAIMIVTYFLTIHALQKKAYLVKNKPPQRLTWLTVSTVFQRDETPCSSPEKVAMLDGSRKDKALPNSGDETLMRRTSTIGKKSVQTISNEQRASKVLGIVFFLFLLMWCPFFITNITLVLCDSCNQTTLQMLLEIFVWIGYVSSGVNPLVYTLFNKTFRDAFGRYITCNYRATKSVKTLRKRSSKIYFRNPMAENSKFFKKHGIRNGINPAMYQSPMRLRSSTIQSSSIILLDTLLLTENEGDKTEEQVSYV
Text: (§1) To measure 5-HT2 receptor-mediated Gq activation via Gq/y1 dissociation as measured by Bioluminescence Resonance Energy Transfer (BRET) (McCorvy J D, Wacker D, Wang S, Agegnehu B, Liu J, Lansu K, Tribo A R, Olsen R H J, Che T, Jin J, Roth B L. Structural determinants of 5-HT2B receptor activation and biased agonism. Nat Struct Mo/Biol. 2018; 25(9): 787-96), HEK293T cells were sub-cultured in Dulbecco's Modified Eagle Medium (DMEM) supplemented with 10% dialyzed fetal bovine serum (FBS) and were co-transfected in a 1:1:1:1 ratio with Rluc8-fused human Gaq (Gaq-Rluc8), a GFP2-fused to the C-terminus of human Gy1(Gy1-GFP2), human G131, and 5-HT2 receptor using TransiT-2020. […] Substrate addition occurred 15 minutes before reading and utilized 10 μL of the Rluc substrate coelenterazine 400a for Gq dissociation BRET^2 (Prolume/Nanolight, 5 μM final concentration). Plates were read for luminescence at 400 nm and fluorescent GFP2 emission at 510 nm at 1 second per well using a Mithras LB940 multimode microplate reader (e.g. one provided by Berthold). The BRET ratios of fluorescence/luminescence were calculated per well and were plotted as a function of drug concentration using Graphpad Prism 8 (Graphpad Software Inc., San Diego, CA).

[2] = target: T2, 5-HT2A receptor (Homo sapiens, UniProt P28223); experiment: 5-HT2 receptor-mediated Gq activation, Gq/y1 dissociation by BRET, 5-HT2A
T2 construct: expressed in transfected cells; host or cells: HEK293T
T2 sequence (P28223 whole entry): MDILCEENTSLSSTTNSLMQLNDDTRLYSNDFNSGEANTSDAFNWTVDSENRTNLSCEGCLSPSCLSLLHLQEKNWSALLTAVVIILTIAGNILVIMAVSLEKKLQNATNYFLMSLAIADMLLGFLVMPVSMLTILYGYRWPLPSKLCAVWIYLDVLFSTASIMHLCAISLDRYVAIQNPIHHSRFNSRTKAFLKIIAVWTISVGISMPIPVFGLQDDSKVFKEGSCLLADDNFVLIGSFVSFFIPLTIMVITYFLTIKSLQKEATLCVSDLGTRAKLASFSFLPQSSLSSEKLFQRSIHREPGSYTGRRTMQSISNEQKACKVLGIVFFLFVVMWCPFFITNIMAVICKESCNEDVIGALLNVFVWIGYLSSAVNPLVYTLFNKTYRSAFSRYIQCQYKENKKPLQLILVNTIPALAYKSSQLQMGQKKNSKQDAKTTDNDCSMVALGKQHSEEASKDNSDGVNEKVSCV
Text: as §1

[3] = target: T3, 5-HT2C receptor (Homo sapiens, UniProt P28335); experiment: 5-HT2 receptor-mediated Gq activation, Gq/y1 dissociation by BRET, 5-HT2C
T3 construct: expressed in transfected cells; host or cells: HEK293T
T3 sequence (P28335 33-458): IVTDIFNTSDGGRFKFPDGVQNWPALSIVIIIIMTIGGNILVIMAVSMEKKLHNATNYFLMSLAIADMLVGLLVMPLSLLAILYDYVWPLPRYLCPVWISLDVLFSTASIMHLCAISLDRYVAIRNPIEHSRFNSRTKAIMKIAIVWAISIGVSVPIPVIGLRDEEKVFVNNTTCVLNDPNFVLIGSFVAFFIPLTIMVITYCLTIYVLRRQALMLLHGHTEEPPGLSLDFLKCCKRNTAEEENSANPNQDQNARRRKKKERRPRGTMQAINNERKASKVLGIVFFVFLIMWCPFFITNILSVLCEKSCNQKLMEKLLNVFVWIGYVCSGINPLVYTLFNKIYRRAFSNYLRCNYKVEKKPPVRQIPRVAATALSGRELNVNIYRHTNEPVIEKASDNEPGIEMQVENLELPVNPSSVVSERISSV
Text: as §1

SMILES	Emax [1] [%]	Emax [2] [%]	Emax [3] [%]
CNC[C@H]1C[C@@H]1c1cc(F)ccc1OC	50 to 80	50 to 80	50 to 80
CNCC1CC1c1cc(F)ccc1SC (centres unmarked)		50 to 80	50 to 80
